Where a name gives a salt, the structure may show the parent alone.
Tests used:
[1] = Stability in buffer at various pH values (HPLC, unchanged test substance); format: physicochemical; conditions: acetonitrile/buffer 1:1
Method: 0.3 mg of the test substance is weighed into a 2 ml HPLC vial and 0.5 ml of acetonitrile is added. The substance is dissolved by putting the sample vessel in an ultrasonic bath for about 10 seconds. Then 0.5 ml of the respective buffer solution is added, and the sample is again treated in the ultrasonic bath.
Buffer solutions employed: • pH 4.0: 1 liter of Millipore water is adjusted to pH 4.0 with 1 N hydrochloric acid; • pH 7.4: 90 g of sodium chloride, 13.61 g of potassium dihydrogen phosphate and 83.35 g of 1 M sodium hydroxide solution are made up to 1 liter with Millipore water and then diluted 1:10.
5 μl portions of the test solution are analysed by HPLC for their content of unchanged test substance every hour over a period of 24 hours at 25° C. The percentage areas of the appropriate peaks are used for quantification.
Agilent 1100 with DAD (G1314A), binary pump (G1312A), autosampler (G1329A), column oven (G1316A), thermostat (G1330A); column: Kromasil 100 C18, 60 mm×2.1 mm, 3.5 μm; column temperature: 30° C.; eluent A: water+5 ml of perchloric acid/liter, eluent B: acetonitrile; gradient: 0-1.0 min 98% A, 2% B→1.0-9.0 min 2% A, 98% B; 9.0-13.0 min 2% A, 98% B; 13.0-13.5 min 98% A, 2% B; 13.5-15.0 98% A, 2% B; flow rate: 0.75 ml/min; UV detection: 210 nm.
The ratios of the peak areas (F) at the respective time points in relation to the peak areas at the starting time are shown in Table 2 for representative exemplary embodiments: […]

[2] = Determination of the solubility in dilute hydrochloric acid (pH 4); format: physicochemical; conditions: aqueous buffer, thermodynamic from solid, room temperature, shaken 24 h
Method: The test substance is suspended in water or dilute hydrochloric acid (pH 4). This suspension is shaken at room temperature for 24 h. After ultracentrifugation at 224 000 g for 30 min, the supernatant is diluted with DMSO and analysed by HPLC. A two-point calibration plot of the test compound in DMSO is used for quantification.
Agilent 1100 with DAD (G1315A), quat. pump (G1311A), autosampler CTC HTS PAL, degasser (G1322A) and column thermostat (G1316A); column: Kromasil C18, 60×2.1 mm, 3.5 μm; temperature: 30° C.; eluent A: water+5 ml of perchloric acid/liter, eluent B: acetonitrile; flow rate: 0.7 ml/min; gradient: 0-0.5 min 98% A, 2% B; ramp 0.5-4.5 min 10% A, 90% B; 4.5-6 min 10% A, 90% B; ramp 6.5-6.7 min 98% A, 2% B; 6.7-7.5 min 98% A, 2% B.

Compound	% test substance after 4 h [F(t = 4 h) × 100/F(t = 0 h)] ([1]; buffer pH 4, 25° C.) [%]	% test substance after 24 h [F(t = 24 h) × 100/F(t = 0 h)] ([1]; buffer pH 4, 25° C.) [%]	% test substance after 4 h [F(t = 4 h) × 100/F(t = 0 h)] ([1]; buffer pH 7.4, 25° C.) [%]	% test substance after 24 h [F(t = 24 h) × 100/F(t = 0 h)] ([1]; buffer pH 7.4, 25° C.) [%]	solubility at 24 h [2] [µg/mL]
CC(C)[C@H](N)C(=O)SCCCCC(=O)N(C[C@H]1CN(c2ccc(N3CCOCC3=O)cc2)C(=O)O1)C(=O)c1ccc(Cl)s1 [Example 4, S-(5-{[(5-Chloro-2-thienyl)carbonyl]({(5S)-2-oxo-3-[4-(3-oxomorpholin-4-yl)phenyl]-1,3-oxazolidin-5-yl}methyl)amino}-5-oxopentyl)(2S)-2-amino-3-methylbutanethioate hydrochloride]	100	100	92	77	–
CC(C)[C@H](N)C(=O)OCCCCC(=O)N(C[C@H]1CN(c2ccc(N3CCOCC3=O)cc2)C(=O)O1)C(=O)c1ccc(Cl)s1 [Example 3, hydrochloride]	100	101	100	100	> 3500
NCC(=O)SCCCCC(=O)N(C[C@H]1CN(c2ccc(N3CCOCC3=O)cc2)C(=O)O1)C(=O)c1ccc(Cl)s1 [Example 5, S-(5-{[(5-Chloro-2-thienyl)carbonyl]({(5S)-2-oxo-3-[4-(3-oxomorpholin-4-yl)phenyl]-1,3-oxazolidin-5-yl}methyl)amino}-5-oxopentyl)aminoethanethioate hydrochloride]	100	100	96	84	–
NCC(=O)OCCCCC(=O)N(C[C@H]1CN(c2ccc(N3CCOCC3=O)cc2)C(=O)O1)C(=O)c1ccc(Cl)s1 [Example 2, hydrochloride]	101	101	99	94	–
NCCCC[C@H](N)C(=O)SCCCCC(=O)N(C[C@H]1CN(c2ccc(N3CCOCC3=O)cc2)C(=O)O1)C(=O)c1ccc(Cl)s1 [Example 6, S-(5-{[(5-Chloro-2-thienyl)carbonyl]({(5S)-2-oxo-3-[4-(3-oxomorpholin-4-yl)phenyl]-1,3-oxazolidin-5-yl}methyl)amino}-5-oxopentyl)(2S)-2,6-diaminohexanethioate dihydrochloride]	99	99	90	53	–

Results, then the molecule that gave them:

% test substance after 4 h [F(t = 4 h) × 100/F(t = 0 h)] ([1]; buffer pH 4, 25° C.) [%]	% test substance after 24 h [F(t = 24 h) × 100/F(t = 0 h)] ([1]; buffer pH 4, 25° C.) [%]	% test substance after 4 h [F(t = 4 h) × 100/F(t = 0 h)] ([1]; buffer pH 7.4, 25° C.) [%]	% test substance after 24 h [F(t = 24 h) × 100/F(t = 0 h)] ([1]; buffer pH 7.4, 25° C.) [%]	solubility at 24 h [2] [µg/mL]	Compound
100	100	98	88	1900	NCCCC[C@H](N)C(=O)NCCCCC(=O)N(C[C@H]1CN(c2ccc(N3CCOCC3=O)cc2)C(=O)O1)C(=O)c1ccc(Cl)s1 [Example 14, N-(5-{[(5-Chloro-2-thienyl)carbonyl]({(5S)-2-oxo-3-[4-(3-oxomorpholin-4-yl)phenyl]-1,3-oxazolidin-5-yl}methyl)amino}-5-oxopentyl)-L-lysinamide hydrochloride]
100	100	86	48	–	CC(C)[C@H](N)C(=O)SCCCC(=O)N(C[C@H]1CN(c2ccc(N3CCOCC3=O)cc2)C(=O)O1)C(=O)c1ccc(Cl)s1 [Example 8, S-(5-{[(5-Chloro-2-thienyl)carbonyl]({(5S)-2-oxo-3-[4-(3-oxomorpholin-4-yl)phenyl]-1,3-oxazolidin-5-yl}methyl)amino}-4-oxobutyl)(2S)-2-amino-3-methylbutanethioate hydrochloride]
101	101	100	99	–	O=C(NCCCCC(=O)N(C[C@H]1CN(c2ccc(N3CCOCC3=O)cc2)C(=O)O1)C(=O)c1ccc(Cl)s1)[C@@H]1CCCN1 [Example 11, N-(5-{[(5-Chloro-2-thienyl)carbonyl]({(5S)-2-oxo-3-[4-(3-oxomorpholin-4-yl)phenyl]-1,3-oxazolidin-5-yl}methyl)amino}-5-oxopentyl)-L-prolineamide hydrochloride]
100	101	97	84	> 500	C[C@H](N)C(=O)SCCCCC(=O)N(C[C@H]1CN(c2ccc(N3CCOCC3=O)cc2)C(=O)O1)C(=O)c1ccc(Cl)s1 [Example 7, S-(5-{[(5-Chloro-2-thienyl)carbonyl]({(5S)-2-oxo-3-[4-(3-oxomorpholin-4-yl)phenyl]-1,3-oxazolidin-5-yl}methyl)amino}-5-oxopentyl)(2S)-2-aminopropanethioate hydrochloride]
100	101	99	93	> 3000	N[C@@H](Cc1c[nH]cn1)C(=O)NCCCCC(=O)N(C[C@H]1CN(c2ccc(N3CCOCC3=O)cc2)C(=O)O1)C(=O)c1ccc(Cl)s1 [Example 12, N-(5-{[(5-Chloro-2-thienyl)carbonyl]({(5S)-2-oxo-3-[4-(3-oxomorpholin-4-yl)phenyl]-1,3-oxazolidin-5-yl}methyl)amino}-5-oxopentyl)-L-histidinamide hydrochloride]
